Row | melting point | Compound
1 | 201 to 204 °C | CCc1nc2cc(C(=O)NC)c(Cl)cc2n1-c1ccc(CCOC(=O)NS(=O)(=O)c2ccc(C)cc2)cc1 [Example 334, 2-(4-{6CHLORO-2-ETHYL-5-[(METHYLAMINO)CARBONYL]-1H-BENZIMIDAZOL-1-YL}PHENYL)ETHYL (4-METHYLPHENYL)SULFONYLCARBAMATE]
2 | 174.5 °C | CCc1nc2cc(COC)c(Cl)cc2n1-c1ccc(CCOC(=O)NS(=O)(=O)c2ccc(C)cc2)cc1
3 | 170 to 175 °C | CCc1nc2cc(C(N)=O)c(Cl)cc2n1-c1ccc(CCOC(=O)NS(=O)(=O)c2ccc(C)cc2)cc1
4 | 172.7 °C | CCc1nc2cc(CO)c(Cl)cc2n1-c1ccc(CCOC(=O)NS(=O)(=O)c2ccc(C)cc2)cc1 [Example 337, 2-{4-[6-CHLORO-2-ETHYL-5-(HYDROXYMETHYL)-1H-BENZIMIDAZOL-1-YL]PHENYL}ETHYL (4-METHYLPHENYL)SULFONYLCARBAMATE]

Further lines, the compound ahead of its results:

Row | Compound | melting point
5 | Cc1ccc(S(=O)(=O)NC(=O)OCCc2ccc(-n3c(CCC(=O)N4CCCC4)nc4cc(C(F)(F)F)c(Cl)cc43)cc2)cc1 [Example 363, 2-{4-[6-CHLORO-2-[3-OXO-3-(1-PYRROLIDINYL)PROPYL]-5-(TRIFLUOROMETHYL)-1H-BENZIMIDAZOL-1-YL]PHENYL}ETHYL (4-METHYLPHENYL)SULFONYLCARBAMATE] | 98 to 105 °C
6 | Cc1ccc(S(=O)(=O)NC(=O)OCCc2ccc(-n3c(CCC(=O)c4cccnc4)nc4cc(C(F)(F)F)c(Cl)cc43)cc2)cc1 | 89 to 95 °C
7 | Cc1ccc(S(=O)(=O)NC(=O)OCCc2ccc(-n3c(CCC(=O)c4ccccn4)nc4cc(C(F)(F)F)c(Cl)cc43)cc2)cc1 | 233.6 °C
8 | CCc1nc2c(C)cc(C)nc2n1-c1ccc(CC(C)OC(=O)NS(=O)(=O)c2ccc(C)cc2)cc1 (stereo not shown) [Example 7, 2-[4-(2-ETHYL-5,7-DIMETHYL-3H-IMIDAZO[4,5-b]PYRIDIN-3-YL)PHENYL]-1-METHYLETHYL (4-METHYLPHENYL)SULFONYLCARBAMATE] | 108 °C
9 | Cc1ccc(S(=O)(=O)NC(=O)OCCc2ccc(-n3c(CCC(=O)N4CCCCC4)nc4cc(C(F)(F)F)c(Cl)cc43)cc2)cc1 | 210 °C
10 | Cc1ccc(S(=O)(=O)NC(=O)OCCc2ccc(-n3c(CCCN4CCCC4=O)nc4cc(C(F)(F)F)c(Cl)cc43)cc2)cc1 | 85 to 90 °C

Source: patent US7479564B2, “Aryl or heteroaryl fused imidazole compounds as anti-inflammatory and analgesic agents” (RaQualia Pharma Inc., priority 2000, dated 2009)
